Measurements taken from ChEMBL document CHEMBL1201862, “PubChem BioAssay data set” (2004).
One block for each compound: values may come before it. Calls of active or inactive are those of the source.

Legend:
Cytochrome P450 3A4 = Cytochrome P450 3A4 (Homo sapiens, UniProt P08684);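 note: CYP3A4 tested as one member of a cytochrome P450 panel screen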
Cytochrome P450 2C9 = Cytochrome P450 2C9 (Homo sapiens, UniProt P11712)
HEK293 = experiment: inhibitors of LMP1-driven NF-kB reporter, dose response, cell-based, HEK293, luciferase, cherry-pick (AID 588343); assay type: functional; conditions: Homo sapiens
Prothrombin = Prothrombin (Homo sapiens, UniProt P00734); experiment: Thrombin 1536 HTS Dose Response Confirmation. [Related pubchem assays: 1046 (Thrombin 1536 HTS; hits were confirmed in this assay)]; assay type: functional
Beta-galactosidase = Beta-galactosidase (Escherichia coli, UniProt Q8VNN2); experiment: Dose response counterscreen for EBI2 assay utilizing the enzyme, b-galactosidase.; assay type: functional
[1] = inhibitors of clade B AD8 Env fusion, dose response, cell-based, cherry-pick (AID 652062); assay type: functional;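 note: luciferase signal from cell-cell fusion driven by HIV-1 clade B AD8 Env; potency is for inhibitors of fusion seen as a drop in luminescence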
[2] = inhibitors of HIV Env-driven cell fusion, dose response, cherry-pick (AID 652057); assay type: functional, cell-based
[3] = ZM109 Env clade C HIV-1 fusion inhibitors, dose response, HeLa effector, CEM target cells, luciferase, cherry-pick (AID 652058); assay type: functional, cell-based
[4] = off-target signal loss in HeLa-CEM21 co-culture – HeLa F-luc CTL cells, cherry-picked, counter-screen for HIV-1 Env fusion inhibitor project, dose response (AID 652040); assay type: functional, cell-based;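 note: potency for signal decrease marking cytotoxic or nonspecific inhibition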
Cytochrome P450 2C19 = Cytochrome P450 2C19 (Homo sapiens, UniProt P33261); experiment: Cytochrome panel assay with activity outcomes. Panel member name: p450-cyp2c19 Compounds with AC50 equal or less than 10 uM are considered active; assay type: functional
[5] = target: 5-hydroxytryptamine receptor 2A (Mus musculus, UniProt P35363); assay type: functional, cell-based;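 note: CHO-K1 cells with tagged receptor and beta-arrestin; agonist potency measured as compound-induced activation of the receptor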
Mu-type opioid receptor = Mu-type opioid receptor (Homo sapiens, UniProt P35372); assay type: functional, cell-based;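 note: U2OS cells with beta-arrestin recruitment to OPRM1 by beta-gal complementation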
[6] = target: Glucose-6-phosphate 1-dehydrogenase (Homo sapiens, UniProt P11413); experiment: human G6PD enzyme inhibitors, dose response, selectivity assay for P. falciparum G6PD inhibitor project, biochemical, fluorescence (AID 504792); assay type: functional
[7] = cytotoxicity in HPDE-C7 cells, cell-based, fluorescence, HTS (AID 430); assay type: functional; conditions: Homo sapiens
[8] = cytotoxicity toward NIH3T3 fibroblasts, dose response, counter-screen, cell-based, ATP luminescence, mouse fibroblasts (AID 2010); assay type: functional;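 note: cells exposed to compound for about 90 hours before reading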
Large T antigen = Large T antigen (Simian virus 40, UniProt P03070); assay type: functional, Betapolyomavirus macacae;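 note: Confirmatory-stage PubChem screen for compounds that inhibit SV40 T antigen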
[9] = cytotoxicity in KRAS-transformed pancreatic duct cells, primary screen, cell-based, fluorescence, HTS (AID 431); assay type: functional; conditions: Homo sapiens;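 note: cell line used: HPDE-C7K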
[10] = inhibitors of intracellular T. cruzi replication, confirmation, NIH3T3 host cells, beta-gal luminescence (AID 2044); assay type: functional, cell-based;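 note: intracellular parasites grown in NIH/3T3 mouse fibroblasts as host cells; luminescent beta-galactosidase reporter signal from transgenic T. cruzi replicating inside host cells; inhibitors lower the luminescence signal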
[11] = Luminescence Cell-Based Dose Retest to Confirm Inhibitors of Cancer Stem Cells. [Related pubchem assays (depositor defined):AID2717, AID2721]; assay type: functional; conditions: Homo sapiens
[12] = IGROV1 ovarian cancer cell cytotoxicity, dose response, PAX8 inhibitor project, plate reader, dry powder samples (AID 743043); assay type: functional, cell-based; conditions: IGROV-1
[13] = cytotoxicity in OVCAR8 ovarian cancer cells, dose response, PAX8 project, cell-based, plate reader, dry powder samples (AID 743197); assay type: functional; conditions: OVCAR-8
Paired box protein Pax-8 = Paired box protein Pax-8 (Homo sapiens, UniProt Q06710); experiment: inhibitors of PAX8-driven TPO luciferase reporter, dose response, RMG-I cells, cherry-pick (AID 687027); assay type: functional, cell-based;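 note: luciferase reporter driven by Pax8 target thyroperoxidase promoter measured by SteadyGlo luminescence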
[14] = T. cruzi growth inhibition in host cells, dose response, cell-based, plate reader, dry powder, set 2 (AID 652275); assay type: functional
[15] = NIH:OVCAR-3 ovarian cancer cell cytotoxicity, dose response, PAX8 inhibitor project, plate reader, dry powder samples (AID 743044); assay type: functional, cell-based

5-hydroxytryptamine receptor 2A, sequence (P35363 whole entry): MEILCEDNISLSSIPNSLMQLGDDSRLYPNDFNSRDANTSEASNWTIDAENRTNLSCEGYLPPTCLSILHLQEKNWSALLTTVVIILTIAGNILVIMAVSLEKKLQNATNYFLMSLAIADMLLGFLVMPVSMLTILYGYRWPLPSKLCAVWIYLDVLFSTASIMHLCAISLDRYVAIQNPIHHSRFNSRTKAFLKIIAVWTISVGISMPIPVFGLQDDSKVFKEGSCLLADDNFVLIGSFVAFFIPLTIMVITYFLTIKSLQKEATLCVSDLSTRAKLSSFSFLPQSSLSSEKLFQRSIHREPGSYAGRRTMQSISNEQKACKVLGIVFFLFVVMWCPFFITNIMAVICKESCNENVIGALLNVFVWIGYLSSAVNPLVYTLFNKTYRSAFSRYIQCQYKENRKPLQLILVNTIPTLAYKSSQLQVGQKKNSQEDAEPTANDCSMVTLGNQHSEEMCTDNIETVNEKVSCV
Cytochrome P450 3A4, sequence (P08684 whole entry): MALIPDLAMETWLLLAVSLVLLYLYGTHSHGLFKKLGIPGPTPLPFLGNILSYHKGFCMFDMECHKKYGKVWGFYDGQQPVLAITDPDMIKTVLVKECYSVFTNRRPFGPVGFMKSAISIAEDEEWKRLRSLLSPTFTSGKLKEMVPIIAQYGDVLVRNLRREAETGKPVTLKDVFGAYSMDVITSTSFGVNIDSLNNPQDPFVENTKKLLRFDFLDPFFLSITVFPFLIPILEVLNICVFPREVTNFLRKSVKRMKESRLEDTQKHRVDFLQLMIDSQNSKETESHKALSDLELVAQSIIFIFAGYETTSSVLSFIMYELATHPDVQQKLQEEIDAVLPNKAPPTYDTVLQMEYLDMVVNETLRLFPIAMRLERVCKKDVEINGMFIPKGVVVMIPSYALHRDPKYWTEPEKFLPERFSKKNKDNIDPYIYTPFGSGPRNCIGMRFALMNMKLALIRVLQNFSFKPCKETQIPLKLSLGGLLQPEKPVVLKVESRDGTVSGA
Paired box protein Pax-8, sequence (Q06710 whole entry): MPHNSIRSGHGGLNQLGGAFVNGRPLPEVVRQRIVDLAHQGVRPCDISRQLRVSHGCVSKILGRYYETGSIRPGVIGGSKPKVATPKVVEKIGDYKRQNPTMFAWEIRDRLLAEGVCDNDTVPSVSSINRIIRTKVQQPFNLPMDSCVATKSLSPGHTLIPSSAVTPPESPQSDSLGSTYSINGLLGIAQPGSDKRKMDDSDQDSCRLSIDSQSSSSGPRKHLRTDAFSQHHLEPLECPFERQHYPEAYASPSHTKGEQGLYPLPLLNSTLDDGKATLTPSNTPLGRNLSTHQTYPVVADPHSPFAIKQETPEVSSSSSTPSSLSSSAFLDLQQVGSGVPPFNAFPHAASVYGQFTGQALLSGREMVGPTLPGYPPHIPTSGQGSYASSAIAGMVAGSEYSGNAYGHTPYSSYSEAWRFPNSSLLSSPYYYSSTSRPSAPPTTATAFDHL
Mu-type opioid receptor, sequence (P35372 whole entry): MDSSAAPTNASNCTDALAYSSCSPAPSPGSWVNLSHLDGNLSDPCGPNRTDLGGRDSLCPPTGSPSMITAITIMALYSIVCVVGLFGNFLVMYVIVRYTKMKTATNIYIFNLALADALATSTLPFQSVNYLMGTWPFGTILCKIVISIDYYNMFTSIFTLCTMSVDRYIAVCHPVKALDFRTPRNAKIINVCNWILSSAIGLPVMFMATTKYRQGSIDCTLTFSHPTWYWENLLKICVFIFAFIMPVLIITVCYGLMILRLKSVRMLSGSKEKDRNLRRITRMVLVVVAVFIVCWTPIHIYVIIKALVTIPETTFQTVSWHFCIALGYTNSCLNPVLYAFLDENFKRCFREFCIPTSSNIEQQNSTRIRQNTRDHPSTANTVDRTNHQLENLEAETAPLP
Cytochrome P450 2C19, sequence (P33261 whole entry): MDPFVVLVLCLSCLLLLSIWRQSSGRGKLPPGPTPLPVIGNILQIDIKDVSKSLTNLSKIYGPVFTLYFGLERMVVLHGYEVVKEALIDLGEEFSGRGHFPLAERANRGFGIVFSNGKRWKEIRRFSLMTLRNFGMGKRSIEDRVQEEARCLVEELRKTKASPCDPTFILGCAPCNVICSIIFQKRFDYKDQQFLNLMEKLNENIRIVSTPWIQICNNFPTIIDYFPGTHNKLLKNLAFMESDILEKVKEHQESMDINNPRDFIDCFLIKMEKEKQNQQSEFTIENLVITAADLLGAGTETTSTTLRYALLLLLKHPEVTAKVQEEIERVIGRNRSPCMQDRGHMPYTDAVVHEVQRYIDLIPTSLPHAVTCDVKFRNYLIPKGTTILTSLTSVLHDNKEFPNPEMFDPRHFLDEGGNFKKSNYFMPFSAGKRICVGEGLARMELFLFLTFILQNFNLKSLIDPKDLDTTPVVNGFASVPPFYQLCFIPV
Beta-galactosidase, sequence (Q8VNN2 whole entry, the tested form may be a part): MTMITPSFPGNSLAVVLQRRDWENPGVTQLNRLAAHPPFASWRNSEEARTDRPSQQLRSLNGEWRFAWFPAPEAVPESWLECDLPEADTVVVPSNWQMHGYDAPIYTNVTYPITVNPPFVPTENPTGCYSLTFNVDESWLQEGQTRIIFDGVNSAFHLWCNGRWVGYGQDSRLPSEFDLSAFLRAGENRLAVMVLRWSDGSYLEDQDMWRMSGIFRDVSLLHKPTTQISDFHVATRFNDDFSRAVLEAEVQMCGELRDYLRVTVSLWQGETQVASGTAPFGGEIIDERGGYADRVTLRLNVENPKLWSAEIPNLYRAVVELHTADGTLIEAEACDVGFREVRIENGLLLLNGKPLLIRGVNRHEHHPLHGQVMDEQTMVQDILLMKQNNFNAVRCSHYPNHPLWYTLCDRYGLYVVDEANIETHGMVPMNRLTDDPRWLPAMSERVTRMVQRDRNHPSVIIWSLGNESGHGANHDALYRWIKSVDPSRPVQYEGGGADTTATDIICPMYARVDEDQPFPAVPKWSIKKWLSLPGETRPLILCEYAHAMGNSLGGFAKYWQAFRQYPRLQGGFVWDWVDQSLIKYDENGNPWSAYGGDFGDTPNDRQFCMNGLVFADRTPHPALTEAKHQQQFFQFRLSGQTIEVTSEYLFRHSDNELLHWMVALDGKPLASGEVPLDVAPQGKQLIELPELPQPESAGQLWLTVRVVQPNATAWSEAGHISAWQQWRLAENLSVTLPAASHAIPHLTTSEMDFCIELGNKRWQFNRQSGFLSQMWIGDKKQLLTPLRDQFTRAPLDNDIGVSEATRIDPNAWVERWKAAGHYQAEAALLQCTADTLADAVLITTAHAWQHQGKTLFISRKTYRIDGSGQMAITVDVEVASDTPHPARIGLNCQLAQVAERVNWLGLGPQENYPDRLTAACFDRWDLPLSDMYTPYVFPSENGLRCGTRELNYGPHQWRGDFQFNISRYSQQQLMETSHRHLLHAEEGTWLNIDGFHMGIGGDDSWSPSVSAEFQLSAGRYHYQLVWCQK
Cytochrome P450 2C9, sequence (P11712 whole entry): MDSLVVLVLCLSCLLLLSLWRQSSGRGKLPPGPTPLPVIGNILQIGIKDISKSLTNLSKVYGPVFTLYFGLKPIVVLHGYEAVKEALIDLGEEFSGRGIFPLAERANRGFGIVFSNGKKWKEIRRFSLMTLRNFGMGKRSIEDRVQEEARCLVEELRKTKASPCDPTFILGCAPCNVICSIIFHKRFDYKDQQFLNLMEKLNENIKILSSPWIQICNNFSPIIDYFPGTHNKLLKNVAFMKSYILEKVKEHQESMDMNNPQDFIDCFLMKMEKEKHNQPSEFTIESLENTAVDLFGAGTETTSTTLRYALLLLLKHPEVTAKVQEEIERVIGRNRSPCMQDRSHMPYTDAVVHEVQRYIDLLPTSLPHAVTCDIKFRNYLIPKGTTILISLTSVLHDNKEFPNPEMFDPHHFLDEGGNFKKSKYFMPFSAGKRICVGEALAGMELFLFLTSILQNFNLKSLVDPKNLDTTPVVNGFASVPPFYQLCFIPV
Glucose-6-phosphate 1-dehydrogenase, sequence (P11413 whole entry): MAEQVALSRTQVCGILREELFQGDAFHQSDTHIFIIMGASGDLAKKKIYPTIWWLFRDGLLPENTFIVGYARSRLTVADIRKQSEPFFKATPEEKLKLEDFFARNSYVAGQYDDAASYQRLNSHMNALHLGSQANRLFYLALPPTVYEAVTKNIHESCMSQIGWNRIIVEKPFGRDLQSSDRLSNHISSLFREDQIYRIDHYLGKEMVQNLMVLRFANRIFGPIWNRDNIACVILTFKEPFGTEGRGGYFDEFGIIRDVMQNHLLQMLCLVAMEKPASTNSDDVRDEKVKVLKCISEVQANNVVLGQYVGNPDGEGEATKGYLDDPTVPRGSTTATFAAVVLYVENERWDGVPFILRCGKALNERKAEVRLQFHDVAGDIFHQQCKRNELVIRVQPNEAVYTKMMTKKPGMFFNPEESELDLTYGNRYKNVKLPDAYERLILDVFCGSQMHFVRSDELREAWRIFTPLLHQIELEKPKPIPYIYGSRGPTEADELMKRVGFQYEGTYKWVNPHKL

AC50 (Cytochrome P450 3A4): inconclusive
AC50 (Cytochrome P450 2C9): 2.82 µM (inconclusive)
Compound: CCOC(=O)c1c(C)nc2sc3c(=O)n(-c4ccc(C(C)=O)cc4)nnc3c2c1-c1ccc(Cl)cc1

Compound: CSc1nc2cc3c(cc2n1C(=O)c1ccc(C)cc1)OCCO3
AC50 (HEK293): > 350 µM (inactive)
IC50 (Prothrombin): 0.556 µM (active)

IC50 (Beta-galactosidase): 104 µM (inactive)
Compound: c1ccc(OCCNc2nc(NCC3CC3)nc3cc(-c4ccccc4)sc23)cc1

Compound: CCN(CC)S(=O)(=O)c1cc(NC(=O)C(=O)c2c(-c3ccccc3)cc3ccccn23)ccc1C
AC50 [1]: 17.1 µM (active)
AC50 [2]: 10.6 µM (active)
AC50 [3]: 24.9 µM (active)
AC50 [4]: 9.48 µM (active)

AC50 (Cytochrome P450 2C19): 28.2 µM (inconclusive)
AC50 (Cytochrome P450 3A4): inconclusive
Compound: O=C(O)CC(c1cccc2ccccc12)n1cccc1 (configuration not stated)

EC50 [5]: 0.257 µM (active)
EC50 (Mu-type opioid receptor): 92.5 µM (inactive)
Compound: CC(=O)N1CCc2cc(C(=O)CN3CCN(c4ccccn4)CC3)ccc21

IC50 (Prothrombin): 13.8 µM (active)
Compound: CCCCOC(=O)n1ccc(C(=O)Nc2ccccc2OC)n1

IC50 [6]: > 80 µM (inactive)
Compound: COc1cccc(C(=O)Nc2nnc(S(=O)(=O)N(C)Cc3ccccc3)s2)c1

Compound: CC(=O)CC1OC(O)=C(Br)/C1=N/Cc1ccccc1 (configuration not stated)
EC50 [7]: 7.33 µM (active)
EC50 [8]: 4.68 µM (active)
IC50 (Large T antigen): 41.6 µM (active)
EC50 [9]: 9.82 µM (active)
EC50 [10]: 808 nM (active)

Compound: Cc1cc(C)c(O)c(-c2[nH]nc3c2C(c2cccc(O)c2)N(Cc2ccco2)C3=O)c1 (configuration not stated)
EC50 [5]: 8.01 µM (active)
EC50 (Mu-type opioid receptor): 92.5 µM (inactive)
AC50 [11]: 5.49 µM (active)

Compound: O=C(C[C@H]1CC[C@@H]2[C@H](COC[C@H](O)CN2S(=O)(=O)c2cccc(F)c2)O1)Nc1ccc(-c2ccccc2)cc1
AC50 [12]: 59.4 µM (active)
AC50 [13]: 42.6 µM (active)
AC50 (Paired box protein Pax-8): 17.2 µM (active)

Compound: c1ccc2c(N3CCCCC3)ncnc2c1
AC50 [1]: 53.9 µM (active)
AC50 [2]: 31.5 µM (active)
AC50 [3]: 5.37 µM (active)
AC50 [4]: 56.2 µM (active)

Compound: CN(C)CC#Cc1cccc(-c2nc(C(=O)NCc3ccc4c(c3)OCO4)cc3c2[C@@H](CCO)N([S+]([O-])C(C)(C)C)C3)c1 (some centres not stated)
AC50 [14]: 99.3 nM (active)

Compound: C[C@H](CO)N1C[C@H](C)[C@@H](CN(C)Cc2ccc(Oc3ccccc3)cc2)Oc2ccc(NS(=O)(=O)c3ccc(Cl)cc3)cc2CC1=O
AC50 [12]: 67.8 µM (active)
AC50 [13]: 62.6 µM (active)
AC50 [15]: 68.7 µM (active)
AC50 (Paired box protein Pax-8): 7.43 µM (active)

Compound: COc1ccc(C(=O)CSc2cc(C)nc3nc(C)nn23)cc1OC
EC50 [7]: > 20 µM (not active)
EC50 [9]: > 20 µM (not active)
